In patent US12157741B2, “Macrocyclic inhibitors of DYRK1A” (DANA-FARBER CANCER INSTITUTE, INC., priority 2018, dated 2024):
Read-outs that look alike come from different tables or passages of the source.

Key:
various enzymes [1] = molecular target: T1, various enzymes (Homo sapiens, UniProt P00533, DEL747-749/A750P); conditions: EGFR(L747-E749del, A750P); 1 uM
Protocol: (§2) Ambit profiling from Eurofins (formerly Discoverx) was conducted in accordance with the manufacturer's instructions.

various enzymes [2] = molecular target: various enzymes (Homo sapiens, UniProt P00533, DEL747-752/P753S); type: binding; set-up: other: EGFR(L747-S752del, P753S); 1 uM; other: compound 1 uM
Protocol: (§1) Ambit profiling was conducted in accordance with the manufacturer's instructions.

various enzymes [3] = molecular target: T2, various enzymes (Homo sapiens, UniProt P36888); type: binding; set-up: other: FLT3(ITD); 1 uM; other: compound 1 uM; conditions: compound 1 uM
T2 sequence (P36888 1-993): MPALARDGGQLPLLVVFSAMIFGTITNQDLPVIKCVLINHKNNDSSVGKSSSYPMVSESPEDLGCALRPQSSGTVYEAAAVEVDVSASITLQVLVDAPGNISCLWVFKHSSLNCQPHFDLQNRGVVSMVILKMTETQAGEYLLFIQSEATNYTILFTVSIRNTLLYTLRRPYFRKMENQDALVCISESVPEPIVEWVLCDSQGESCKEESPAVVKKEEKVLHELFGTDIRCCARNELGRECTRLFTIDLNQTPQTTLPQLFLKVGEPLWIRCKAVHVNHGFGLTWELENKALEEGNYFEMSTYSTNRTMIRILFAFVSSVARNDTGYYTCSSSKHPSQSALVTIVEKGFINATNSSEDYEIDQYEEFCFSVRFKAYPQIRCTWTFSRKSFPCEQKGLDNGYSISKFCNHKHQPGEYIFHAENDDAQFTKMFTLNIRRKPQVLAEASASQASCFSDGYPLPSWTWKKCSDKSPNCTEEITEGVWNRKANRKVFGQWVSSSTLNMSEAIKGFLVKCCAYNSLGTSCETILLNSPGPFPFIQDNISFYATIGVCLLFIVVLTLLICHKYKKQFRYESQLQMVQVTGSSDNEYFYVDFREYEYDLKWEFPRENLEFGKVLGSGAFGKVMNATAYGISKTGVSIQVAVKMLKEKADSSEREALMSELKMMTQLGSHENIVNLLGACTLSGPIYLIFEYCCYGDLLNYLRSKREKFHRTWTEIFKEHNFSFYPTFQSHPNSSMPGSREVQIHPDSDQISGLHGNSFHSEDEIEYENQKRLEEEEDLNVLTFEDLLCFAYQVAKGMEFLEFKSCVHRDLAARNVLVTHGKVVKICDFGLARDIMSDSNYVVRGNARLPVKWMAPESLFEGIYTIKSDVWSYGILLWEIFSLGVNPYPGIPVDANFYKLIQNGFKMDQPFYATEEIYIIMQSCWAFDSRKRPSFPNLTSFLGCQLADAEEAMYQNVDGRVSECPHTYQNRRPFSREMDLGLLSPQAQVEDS
Protocol: as §1

various enzymes [4] = molecular target: various enzymes (Homo sapiens, UniProt Q96BR1); type: binding; conditions: compound 1 uM
Sequence of various enzymes (Homo sapiens, UniProt Q96BR1) (Q96BR1 whole entry): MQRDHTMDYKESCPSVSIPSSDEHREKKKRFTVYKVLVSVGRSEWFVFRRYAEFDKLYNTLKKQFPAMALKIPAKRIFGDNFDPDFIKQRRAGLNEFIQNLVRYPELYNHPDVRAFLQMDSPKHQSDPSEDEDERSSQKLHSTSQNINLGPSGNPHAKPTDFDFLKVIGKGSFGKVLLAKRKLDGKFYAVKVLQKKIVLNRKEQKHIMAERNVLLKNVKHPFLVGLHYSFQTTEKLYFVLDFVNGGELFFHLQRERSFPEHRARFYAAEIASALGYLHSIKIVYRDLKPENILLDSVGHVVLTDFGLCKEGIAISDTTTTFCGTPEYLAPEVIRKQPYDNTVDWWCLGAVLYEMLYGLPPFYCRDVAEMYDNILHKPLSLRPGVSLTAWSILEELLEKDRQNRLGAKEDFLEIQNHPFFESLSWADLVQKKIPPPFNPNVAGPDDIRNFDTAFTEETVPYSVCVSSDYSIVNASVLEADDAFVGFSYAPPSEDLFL
Protocol: as §1

various enzymes [5] = molecular target: various enzymes (Homo sapiens, UniProt Q99683); type: binding; conditions: compound 1 uM
Sequence of various enzymes (Homo sapiens, UniProt Q99683) (Q99683 whole entry): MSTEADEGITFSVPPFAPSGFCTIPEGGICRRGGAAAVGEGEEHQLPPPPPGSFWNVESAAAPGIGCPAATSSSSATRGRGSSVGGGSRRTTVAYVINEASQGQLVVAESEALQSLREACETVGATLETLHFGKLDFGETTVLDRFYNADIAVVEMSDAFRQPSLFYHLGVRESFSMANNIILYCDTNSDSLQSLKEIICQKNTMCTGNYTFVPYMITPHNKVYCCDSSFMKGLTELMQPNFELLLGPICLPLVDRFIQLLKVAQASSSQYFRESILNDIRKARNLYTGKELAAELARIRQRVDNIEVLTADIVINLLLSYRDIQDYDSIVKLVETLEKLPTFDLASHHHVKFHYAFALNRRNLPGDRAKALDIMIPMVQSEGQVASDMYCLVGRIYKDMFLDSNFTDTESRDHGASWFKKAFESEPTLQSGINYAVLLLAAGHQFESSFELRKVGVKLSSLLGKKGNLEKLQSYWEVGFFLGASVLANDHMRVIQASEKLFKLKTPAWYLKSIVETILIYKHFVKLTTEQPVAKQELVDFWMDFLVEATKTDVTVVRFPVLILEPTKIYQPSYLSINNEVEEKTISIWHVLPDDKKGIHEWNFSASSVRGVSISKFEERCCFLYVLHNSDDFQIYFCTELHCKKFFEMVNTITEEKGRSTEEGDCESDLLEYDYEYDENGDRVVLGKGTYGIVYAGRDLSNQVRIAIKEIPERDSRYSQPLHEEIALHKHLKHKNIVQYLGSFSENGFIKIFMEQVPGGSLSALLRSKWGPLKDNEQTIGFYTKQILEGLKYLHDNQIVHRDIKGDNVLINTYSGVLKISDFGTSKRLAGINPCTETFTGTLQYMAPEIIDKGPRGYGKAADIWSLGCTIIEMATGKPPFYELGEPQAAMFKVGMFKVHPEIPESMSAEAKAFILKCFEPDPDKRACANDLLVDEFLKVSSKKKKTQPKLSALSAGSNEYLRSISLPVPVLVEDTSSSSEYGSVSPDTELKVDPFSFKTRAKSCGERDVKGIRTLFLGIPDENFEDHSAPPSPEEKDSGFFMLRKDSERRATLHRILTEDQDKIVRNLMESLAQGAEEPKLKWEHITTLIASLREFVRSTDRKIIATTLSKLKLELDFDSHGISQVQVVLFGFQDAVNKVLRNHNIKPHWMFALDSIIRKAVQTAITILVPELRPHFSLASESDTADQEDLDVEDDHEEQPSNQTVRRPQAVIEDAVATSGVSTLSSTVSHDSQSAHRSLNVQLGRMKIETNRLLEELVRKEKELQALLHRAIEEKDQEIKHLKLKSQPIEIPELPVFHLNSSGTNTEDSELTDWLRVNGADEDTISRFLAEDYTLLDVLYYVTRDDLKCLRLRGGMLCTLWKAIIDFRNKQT
Protocol: as §1

various enzymes [6] = molecular target: various enzymes (Homo sapiens, UniProt Q9UEE5); type: binding; conditions: compound 1 uM
Sequence of various enzymes (Homo sapiens, UniProt Q9UEE5) (Q9UEE5 whole entry): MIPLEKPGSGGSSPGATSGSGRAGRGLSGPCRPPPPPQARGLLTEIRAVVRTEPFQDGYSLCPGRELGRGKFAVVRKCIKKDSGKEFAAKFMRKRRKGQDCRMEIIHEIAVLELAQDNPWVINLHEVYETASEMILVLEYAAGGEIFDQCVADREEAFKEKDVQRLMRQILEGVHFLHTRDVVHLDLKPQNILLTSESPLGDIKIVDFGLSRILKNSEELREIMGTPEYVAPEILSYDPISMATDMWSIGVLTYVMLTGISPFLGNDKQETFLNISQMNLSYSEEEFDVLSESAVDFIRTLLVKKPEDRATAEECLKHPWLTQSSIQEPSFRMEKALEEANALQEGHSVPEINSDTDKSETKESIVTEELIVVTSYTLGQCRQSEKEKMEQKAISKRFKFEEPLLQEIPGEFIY
Protocol: as §1

various enzymes [7] = molecular target: various enzymes (Homo sapiens, UniProt P42685); type: binding; conditions: compound 1 uM
Sequence of various enzymes (Homo sapiens, UniProt P42685) (P42685 whole entry): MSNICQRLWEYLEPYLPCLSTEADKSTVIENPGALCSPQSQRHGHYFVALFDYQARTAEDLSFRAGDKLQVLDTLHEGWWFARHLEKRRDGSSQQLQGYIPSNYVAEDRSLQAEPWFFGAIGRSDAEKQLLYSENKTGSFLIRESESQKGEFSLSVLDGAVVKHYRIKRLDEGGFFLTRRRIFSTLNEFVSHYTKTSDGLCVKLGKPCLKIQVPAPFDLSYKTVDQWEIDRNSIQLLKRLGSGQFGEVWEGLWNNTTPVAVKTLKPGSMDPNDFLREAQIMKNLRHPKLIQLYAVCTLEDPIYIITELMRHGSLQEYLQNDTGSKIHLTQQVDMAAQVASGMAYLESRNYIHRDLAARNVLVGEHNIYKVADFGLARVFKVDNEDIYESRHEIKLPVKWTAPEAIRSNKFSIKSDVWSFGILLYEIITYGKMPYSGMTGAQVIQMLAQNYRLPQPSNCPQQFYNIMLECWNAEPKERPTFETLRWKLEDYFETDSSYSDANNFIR
Protocol: as §1

various enzymes [8] = molecular target: T1, various enzymes; type: binding; set-up: other: EGFR(L747-E749del, A750); 1 uM; other: EGFR(L747-E749del, A750P); other: compound 1 uM
Protocol: as §1

various enzymes [9] = molecular target: various enzymes (Homo sapiens, UniProt P00533, DELINS747-751S); type: binding; set-up: other: EGFR(L747-T751del, Sins); 1 uM; other: compound 1 uM; conditions: compound 1 uM
Protocol: as §1

LRRK2 (G2019S) = molecular target: T3, LRRK2 (G2019S) (Homo sapiens, UniProt Q5S007, G2019S); test: LRRK2(G2019S) enzyme assay (Promega ADP-Glo Kinase assay); type: biochemical; conditions: 25 μM ATP, read-out: Enzyme activity against LRRK2 (G2019S)
T3 construct: purchased SignalChem L10-12GG
Protocol: All LRRK2 kinase inhibition assays were conducted by using Promega™ ADP-Glo™ Kinase assay systems (Cat No. V4475).
For LRRK G2019S, each compound mixed with 0.2 μg/μL of substrate, 25 μM ATP, 16 ng of LRRK2 G2019S enzyme (SignalChem, L10-12GG). All samples were diluted with kinase reaction buffer (40 mmol/L TrisHCl, 10 mmol/L MgCl2, and 0.1 μg/μL BSA, 0.05 mM DTT). After a 2 h reaction at 25° C., ADP-Glo™ (Promega™, V9102) reagent was added and incubated at rt for 40 min. Finally, kinase detection reagent (Promega™, Cat No. V6930) was added and reacted at 25° C. for 10 min. The luminescence signals were detected by using Synergy™ Neo2 microplate reader (BioTek®). Compound inhibition curve was fitted using GraphPad Prism 8.0 software.

various enzymes [10] = molecular target: T4, various enzymes (Homo sapiens, UniProt Q6P2M8); test: Enzyme IC50 of compound 48 (Table 3); type: biochemical; set-up: Enzyme IC50; other: CAMK1B; conditions: CAMK1B
T4 sequence (Q6P2M8 whole entry): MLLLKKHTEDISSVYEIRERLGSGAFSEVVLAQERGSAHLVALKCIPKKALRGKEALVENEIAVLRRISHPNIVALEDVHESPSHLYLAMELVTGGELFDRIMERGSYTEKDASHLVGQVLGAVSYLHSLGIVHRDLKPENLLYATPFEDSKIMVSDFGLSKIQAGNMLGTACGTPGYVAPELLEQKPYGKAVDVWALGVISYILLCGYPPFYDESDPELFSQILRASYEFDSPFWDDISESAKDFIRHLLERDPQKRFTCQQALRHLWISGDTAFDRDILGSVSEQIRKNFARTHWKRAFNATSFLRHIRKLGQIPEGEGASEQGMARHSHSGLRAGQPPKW

various enzymes [11] = molecular target: T4, various enzymes; conditions: CAMK1B; 1 uM
Protocol: as §2

various enzymes [12] = molecular target: various enzymes (Homo sapiens, UniProt P36888, D835V, form not given)
various enzymes [13] = molecular target: various enzymes (Homo sapiens, UniProt Q9Y2I7); conditions: PIKFYVE; 1 uM
Protocol: as §2

various enzymes [14] = molecular target: various enzymes (Homo sapiens, UniProt P36888, F691L, form not given)

Row | Compound | Ambit profiling: FLT3(ITD) (various enzymes [3]) | Ambit profiling: SGK3 (various enzymes [4]) | Ambit profiling: ASK1 (various enzymes [5]) | Ambit profiling: DRAK1 (various enzymes [6]) | Ambit profiling: FRK (various enzymes [7]) | Ambit profiling: EGFR(L747-T751del, Sins) (various enzymes [9]) | also measured
1 | CN1Cc2nn(C)cc2-c2cnc3[nH]cc(c3c2)-c2cnn(c2)CCCC1=O [Compound 41, (Z)-31,5-dimethyl-11H,21H,31H-5-aza-2(3,5)-pyrrolo[2,3-b]pyridina-1(4,1),3(4,3)-dipyrazolacyclononaphan-6-one] |  |  |  |  |  |  | Ambit profiling (various enzymes [1]): 79
2 | CC(C)N1Cc2nn(C)cc2-c2cnc3[nH]cc(c3c2)-c2cn(nc2C(F)(F)F)CCCC1=O [Compound 45, (Z)-5-isopropyl-31-methyl-13-(trifluoromethyl)-11H,21H,31H-5-aza-2(3,5)-pyrrolo[2,3-b]pyridina-1(4,1),3(4,3)-dipyrazolacyclononaphan-6-one] | 0.3 | 30 | 100 | 100 | 11 | 31 | Ambit profiling: EGFR(L747-S752del, P753S) (various enzymes [2]; compound 1 uM): 15; Ambit profiling: EGFR(L747-E749del, A750P) (various enzymes [8]; compound 1 uM): 10
3 | CN1Cc2nn(C)c(C#N)c2-c2cnc3[nH]cc(c3c2)-c2cn(nc2C(F)(F)F)CCCC1=O [Compound 48, (Z)-31,5-dimethyl-6-oxo-13-(trifluoromethyl)-11H,21H,31H-5-aza-2(3,5)-pyrrolo[2,3-b]pyridina-1(4,1),3(4,3)-dipyrazolacyclononaphane-35-carbonitrile] |  |  |  |  |  |  | IC50 (LRRK2 (G2019S)): > 100 nM; IC50 (various enzymes [10]): 830 nM; Ambit profiling (various enzymes [11]): 2.9; Ambit profiling (various enzymes [12]): 2.2; Ambit profiling (various enzymes [13]): 94; Ambit profiling (various enzymes [14]): 46
4 | COc1c2c(nn1C)CN(C(C)C)C(=O)CCCn1cc(c(C(F)(F)F)n1)-c1c[nH]c3ncc-2cc13 [Compound 50, (Z)-5-isopropyl-35-methoxy-31-methyl-13-(trifluoromethyl)-11H,21H,31H-5-aza-2(3,5)-pyrrolo[2,3-b]pyridina-1(4,1),3(4,3)-dipyrazolacyclononaphan-6-one] | 0.35 | 50 | 100 | 100 | 10 | 22 | Ambit profiling: EGFR(L747-S752del, P753S) (various enzymes [2]): 14; Ambit profiling: EGFR(L747-E749del, A750P) (various enzymes [8]): 3.1
